Residues, ends and D or L forms follow the SMILES beside them. *: point of attachment. X1 = Nc1nn(CC(=O)*)c2nnc(-c3c(-c4ccccc4)nn4ccccc34)cc12; PEG4 = NCCOCCOCCOCCOCCC(=O)O
How the values were obtained:
[1] = species on record: Homo sapiens; assay: Selectivity ratio of compound affinity for C-terminal FLAG-tagged human ERK2 to C-terminal FLAG-tagged human p38 alpha
[2] = molecular target: T1, Mitogen-activated protein kinase 1 (Homo sapiens, UniProt P28482); assay: Inhibition of phosphorylated ERK2 (unknown origin) using myelin basic protein as substrate after 2 hrs in presence of ATP by ADP-glo assay
[3] = molecular target: T1, Mitogen-activated protein kinase 1; assay: Binding affinity to non-phosphorylated full length N-terminal His6-tagged/SUMO-fused ERK2 (1 to 360 residues) (unknown origin) by isothermal titration method
[4] = molecular target: Mitogen-activated protein kinase 3 (Homo sapiens) (UniProt P27361); assay: Inhibition of full length wild type human ERK1 (M1 to P379 residues) expressed in bacterial expression system assessed as residual activity at 2 uM by KINOMEscan assay
[5] = molecular target: Mitogen-activated protein kinase 8 (Homo sapiens) (UniProt P45983); assay: Inhibition of full length wild type human JNK1 (M1 to Q384 residues) expressed in mammalian expression system assessed as residual activity at 2 uM by KINOMEscan assay
[6] = molecular target: Mitogen-activated protein kinase 9 (Homo sapiens) (UniProt P45984); assay: Inhibition of full length wild type human JNK2 (M1 to Q382 residues) expressed in mammalian expression system assessed as residual activity at 2 uM by KINOMEscan assay
[7] = molecular target: Mitogen-activated protein kinase 10 (Homo sapiens) (UniProt P53779); assay: Inhibition of full length wild type human JNK3 (M1 to Q382 residues) expressed in mammalian expression system assessed as residual activity at 2 uM by KINOMEscan assay
[8] = molecular target: Mitogen-activated protein kinase 14 (Homo sapiens) (UniProt Q16539); assay: Inhibition of full length wild type human p38alpha (M1 to S360 residues) expressed in bacterial expression system assessed as residual activity at 2 uM by KINOMEscan assay
[9] = molecular target: Mitogen-activated protein kinase 11 (Homo sapiens) (UniProt Q15759); assay: Inhibition of full length wild type human p38beta (M1 to Q364 residues) expressed in bacterial expression system assessed as residual activity at 2 uM by KINOMEscan assay
[10] = molecular target: Glycogen synthase kinase-3 beta (Homo sapiens, UniProt P49841); assay: Binding affinity to full length wild type human GSK3beta (M1 to T433 residues) expressed in mammalian expression system by KINOMEscan assay
Sequence of Glycogen synthase kinase-3 beta (P49841 whole entry, the tested form may be a part): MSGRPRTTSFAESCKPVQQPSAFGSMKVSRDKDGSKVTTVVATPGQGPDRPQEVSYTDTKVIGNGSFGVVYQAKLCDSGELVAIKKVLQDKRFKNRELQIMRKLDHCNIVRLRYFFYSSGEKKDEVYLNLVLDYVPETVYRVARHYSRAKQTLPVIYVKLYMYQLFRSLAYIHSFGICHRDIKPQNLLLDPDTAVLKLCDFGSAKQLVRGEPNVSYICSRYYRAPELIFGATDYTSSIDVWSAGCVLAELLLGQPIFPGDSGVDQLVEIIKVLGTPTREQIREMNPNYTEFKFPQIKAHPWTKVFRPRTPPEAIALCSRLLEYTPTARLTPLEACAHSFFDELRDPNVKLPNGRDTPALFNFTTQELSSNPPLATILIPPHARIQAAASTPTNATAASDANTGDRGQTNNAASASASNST

T1 sequence (P28482 whole entry, the tested form may be a part): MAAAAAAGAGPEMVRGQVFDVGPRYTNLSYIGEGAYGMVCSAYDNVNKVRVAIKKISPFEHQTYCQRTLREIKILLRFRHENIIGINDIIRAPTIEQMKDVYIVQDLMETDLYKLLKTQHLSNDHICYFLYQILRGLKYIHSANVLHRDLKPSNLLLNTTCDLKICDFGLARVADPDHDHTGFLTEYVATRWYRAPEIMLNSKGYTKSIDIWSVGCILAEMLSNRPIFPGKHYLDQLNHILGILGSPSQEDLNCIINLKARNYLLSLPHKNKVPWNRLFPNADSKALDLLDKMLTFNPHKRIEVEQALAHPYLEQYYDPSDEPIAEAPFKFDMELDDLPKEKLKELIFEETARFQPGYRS
Sequence of Mitogen-activated protein kinase 11 (Homo sapiens) (Q15759 whole entry, the tested form may be a part): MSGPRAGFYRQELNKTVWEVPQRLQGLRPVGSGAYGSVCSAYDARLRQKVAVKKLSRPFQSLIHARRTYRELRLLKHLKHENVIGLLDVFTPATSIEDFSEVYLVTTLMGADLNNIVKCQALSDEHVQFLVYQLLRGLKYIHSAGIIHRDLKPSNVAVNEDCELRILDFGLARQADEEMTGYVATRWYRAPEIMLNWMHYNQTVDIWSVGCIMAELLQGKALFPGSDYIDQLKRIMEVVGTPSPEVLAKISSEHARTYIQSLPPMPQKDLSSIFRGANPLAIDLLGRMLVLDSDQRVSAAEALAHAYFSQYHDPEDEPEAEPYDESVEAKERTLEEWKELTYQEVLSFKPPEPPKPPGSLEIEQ
Sequence of Mitogen-activated protein kinase 14 (Homo sapiens) (Q16539 whole entry, the tested form may be a part): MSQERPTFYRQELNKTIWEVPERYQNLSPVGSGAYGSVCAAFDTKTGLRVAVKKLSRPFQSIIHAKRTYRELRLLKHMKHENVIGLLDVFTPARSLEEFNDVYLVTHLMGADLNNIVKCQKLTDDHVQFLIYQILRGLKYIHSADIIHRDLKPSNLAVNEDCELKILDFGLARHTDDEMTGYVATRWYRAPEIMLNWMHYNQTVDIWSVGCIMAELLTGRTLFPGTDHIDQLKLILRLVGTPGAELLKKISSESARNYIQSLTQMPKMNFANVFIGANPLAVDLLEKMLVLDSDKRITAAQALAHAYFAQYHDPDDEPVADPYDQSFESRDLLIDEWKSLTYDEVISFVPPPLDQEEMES
Sequence of Mitogen-activated protein kinase 9 (Homo sapiens) (P45984 whole entry, looked up, the tested form may be a part): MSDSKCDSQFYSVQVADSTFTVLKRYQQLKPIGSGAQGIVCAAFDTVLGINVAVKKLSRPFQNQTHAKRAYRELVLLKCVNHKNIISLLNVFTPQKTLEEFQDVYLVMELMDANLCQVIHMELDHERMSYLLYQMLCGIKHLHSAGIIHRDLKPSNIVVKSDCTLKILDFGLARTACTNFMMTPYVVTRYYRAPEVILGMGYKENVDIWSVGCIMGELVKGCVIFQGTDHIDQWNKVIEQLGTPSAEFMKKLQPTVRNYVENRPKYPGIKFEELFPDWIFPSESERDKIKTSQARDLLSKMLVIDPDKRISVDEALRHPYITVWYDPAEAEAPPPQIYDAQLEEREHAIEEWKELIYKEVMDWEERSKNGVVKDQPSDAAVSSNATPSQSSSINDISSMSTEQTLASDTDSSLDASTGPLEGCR
Sequence of Mitogen-activated protein kinase 8 (Homo sapiens) (P45983 whole entry, the tested form may be a part): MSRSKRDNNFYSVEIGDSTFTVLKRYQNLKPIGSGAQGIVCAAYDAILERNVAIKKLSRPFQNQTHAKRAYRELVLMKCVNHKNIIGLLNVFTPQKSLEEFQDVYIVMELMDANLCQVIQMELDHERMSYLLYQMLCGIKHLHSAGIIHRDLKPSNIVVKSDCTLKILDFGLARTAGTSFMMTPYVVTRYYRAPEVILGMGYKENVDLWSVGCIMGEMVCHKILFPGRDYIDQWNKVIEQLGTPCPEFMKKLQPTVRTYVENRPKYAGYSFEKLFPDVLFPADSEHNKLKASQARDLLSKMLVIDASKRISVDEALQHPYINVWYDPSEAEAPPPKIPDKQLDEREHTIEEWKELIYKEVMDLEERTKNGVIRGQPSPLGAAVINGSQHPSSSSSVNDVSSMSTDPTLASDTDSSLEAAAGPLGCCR
Sequence of Mitogen-activated protein kinase 10 (Homo sapiens) (P53779 whole entry, the tested form may be a part): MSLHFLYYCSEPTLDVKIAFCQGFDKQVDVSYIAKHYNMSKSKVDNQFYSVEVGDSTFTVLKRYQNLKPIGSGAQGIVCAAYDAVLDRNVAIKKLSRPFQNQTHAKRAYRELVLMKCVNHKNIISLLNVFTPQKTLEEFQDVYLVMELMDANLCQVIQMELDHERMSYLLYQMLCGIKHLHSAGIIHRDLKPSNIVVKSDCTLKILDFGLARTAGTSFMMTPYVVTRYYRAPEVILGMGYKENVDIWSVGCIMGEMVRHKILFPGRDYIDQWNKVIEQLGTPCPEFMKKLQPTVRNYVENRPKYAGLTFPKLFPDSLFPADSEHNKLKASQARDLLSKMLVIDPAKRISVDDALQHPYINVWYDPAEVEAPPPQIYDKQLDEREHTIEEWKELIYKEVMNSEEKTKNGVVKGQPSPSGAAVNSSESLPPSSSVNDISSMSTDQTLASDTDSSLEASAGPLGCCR
Sequence of Mitogen-activated protein kinase 3 (Homo sapiens) (P27361 whole entry, the tested form may be a part): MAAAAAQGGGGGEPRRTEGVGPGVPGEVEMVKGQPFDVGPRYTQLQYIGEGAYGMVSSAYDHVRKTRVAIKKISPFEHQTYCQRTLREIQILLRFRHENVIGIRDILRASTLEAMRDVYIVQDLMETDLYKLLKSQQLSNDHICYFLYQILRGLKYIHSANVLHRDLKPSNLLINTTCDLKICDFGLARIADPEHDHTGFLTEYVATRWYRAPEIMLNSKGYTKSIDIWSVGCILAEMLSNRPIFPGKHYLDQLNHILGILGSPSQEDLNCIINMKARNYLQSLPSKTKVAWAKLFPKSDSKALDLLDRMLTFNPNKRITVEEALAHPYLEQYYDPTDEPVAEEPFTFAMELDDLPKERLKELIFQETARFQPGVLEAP

Question: With H-PQLKPIESSILAQRRVRKLPSTTL-OH as the molecule, how does the Selectivity ratio [1] read?
Answer: The Selectivity ratio was 20.

Question: Nc1nn(CC(=O)O)c2nnc(-c3c(-c4ccccc4)nn4ccccc34)cc12 was tested. Which IC50 [2] did it give?
Answer: Its IC50 is 12.3 µM.

Question: For H-EIIKLAPPPKKA-OH, which Kd [3] is on record?
Answer: The Kd was 18 µM.

Question: How did the Activity [4] turn out when CC[C@H](C)[C@H](NC(=O)[C@H](CO)NC(=O)[C@H](CO)NC(=O)[C@H](CCC(=O)O)NC(=O)[C@@H](NC(=O)[C@@H]1CCCN1C(=O)[C@H](CCCCN)NC(=O)[C@H](CC(C)C)NC(=O)[C@H](CCC(N)=O)NC(=O)[C@H](C)NC(=O)[C@@H](NC(=O)CNC(=O)C(N)CCCCn1cc(CCCCNC(=O)CCCCCn2nc(N)c3cc(-c4c(-c5ccccc5)nn5ccccc45)nnc32)nn1)[C@@H](C)O)[C@@H](C)CC)C(=O)N[C@@H](CC(C)C)C(=O)N[C@@H](C)C(=O)N[C@@H](CCC(N)=O)C(=O)N[C@@H](CCCNC(=N)N)C(=O)N[C@@H](CCCNC(=N)N)C(=O)N[C@H](C(=O)N[C@@H](CCCNC(=N)N)C(=O)N[C@@H](CCCCN)C(=O)O)C(C)C (some centres not stated) was run?
Answer: The Activity was 0.15%.

Question: What about the Activity [5] of the same molecule?
Answer: Its Activity is 0.1%.

Question: And the Activity [6]?
Answer: Its Activity is 0.1%.

Question: And the Activity [7]?
Answer: Its Activity is 0.1%.

Question: What about the Activity [8] of the same molecule?
Answer: Its Activity is 0.25%.

Question: What about the Activity [9] of the same molecule?
Answer: Its Activity is 11%.

Question: What about the Kd [10] of the same molecule?
Answer: The Kd was over 2.5 µM.

Question: How did the IC50 [2] turn out when CC[C@H](C)[C@H](NC(=O)[C@H](CCC(=O)O)NC(=O)CCOCCOCCOCCOCCNC(=O)Cn1nc(N)c2cc(-c3c(-c4ccccc4)nn4ccccc34)nnc21)C(=O)N[C@H](C(=O)N[C@@H](CCCCN)C(=O)N[C@@H](CC(C)C)C(=O)N[C@@H](C)C(=O)N1CCC[C@H]1C(=O)N1CCC[C@H]1C(=O)N1CCC[C@H]1C(=O)N[C@@H](CCCCN)C(=O)N[C@@H](CCCCN)C(=O)N[C@@H](C)C(=O)O)[C@@H](C)CC ({X1-PEG4}-EIIKLAPPPKKA-OH) was run?
Answer: The IC50 was 0.7 µM.

Question: With CC[C@H](C)[C@H](NC(=O)[C@H](CO)NC(=O)[C@H](CO)NC(=O)[C@H](CCC(=O)O)NC(=O)[C@@H](NC(=O)[C@@H]1CCCN1C(=O)[C@H](CCCCN)NC(=O)[C@H](CC(C)C)NC(=O)[C@H](CCC(N)=O)NC(=O)[C@H](C)NC(=O)[C@@H](NC(=O)CCOCCOCCOCCOCCNC(=O)Cn1nc(N)c2cc(-c3c(-c4ccccc4)nn4ccccc34)nnc21)[C@@H](C)O)[C@@H](C)CC)C(=O)N[C@@H](CC(C)C)C(=O)N[C@@H](C)C(=O)N[C@@H](CCC(N)=O)C(=O)N[C@@H](CCCNC(=N)N)C(=O)N[C@@H](CCCNC(=N)N)C(=O)N[C@H](C(=O)N[C@@H](CCCNC(=N)N)C(=O)N[C@@H](CCCCN)C(=O)N[C@@H](CCCNC(=N)N)C(=O)N[C@@H](CCCCN)C(=O)N[C@@H](CCCCN)C(=O)N[C@@H](CCCNC(=N)N)C(=O)N[C@@H](CCCNC(=N)N)C(=O)N[C@@H](CCC(N)=O)C(=O)N[C@@H](CCCNC(=N)N)C(=O)N[C@@H](CCCNC(=N)N)C(=O)N[C@@H](CCCNC(=N)N)C(=O)O)C(C)C ({X1-PEG4}-TAQLKPIESSILAQRRVRKRKKRRQRRR-OH) as the molecule, how does the IC50 [2] read?
Answer: The IC50 was 0.014 µM.
